Experimental data from patent US4066768A, “Derivatives of 1-phenoxy-3-amino-propan-2-ol” (Cassella Farbwerke Mainkur Aktiengesellschaft, priority 1973, dated 1978).

Columns and labels:
[1] = target: T1, β1-receptors of the heart (Canis lupus familiaris, UniProt P79148); assay: Inhibition of isoproterenol-induced increase in rate of pressure rise (Dp/dt max.) in left ventricle of anaesthetised dogs (β1-receptor inhibition); type: in vivo, mongrel dogs; settings: for ED50: dog, iv, read-out: β1-receptor inhibition ED 50; for Quotient: ED 50 of β2-receptor inhibition / ED 50 of β1-receptor inhibition / Relative quotient, on basis of reference substance = 1 / Relative β1-receptor inhibition (reference substance = 100): dogs; for Quotient: ED 50 of β2-receptor inhibition / ED 50 of β1-receptor inhibition: cardioselectivity, higher = better; for Relative quotient, on basis of reference substance = 1: relative cardioselectivity factor; for Relative β1-receptor inhibition (reference substance = 100): relative ED 50, lower = more active
T1 construct: from tissue; host or cells: heart (left ventricle) of anaesthetised mongrel dogs, in vivo
T1 sequence (P79148 whole entry): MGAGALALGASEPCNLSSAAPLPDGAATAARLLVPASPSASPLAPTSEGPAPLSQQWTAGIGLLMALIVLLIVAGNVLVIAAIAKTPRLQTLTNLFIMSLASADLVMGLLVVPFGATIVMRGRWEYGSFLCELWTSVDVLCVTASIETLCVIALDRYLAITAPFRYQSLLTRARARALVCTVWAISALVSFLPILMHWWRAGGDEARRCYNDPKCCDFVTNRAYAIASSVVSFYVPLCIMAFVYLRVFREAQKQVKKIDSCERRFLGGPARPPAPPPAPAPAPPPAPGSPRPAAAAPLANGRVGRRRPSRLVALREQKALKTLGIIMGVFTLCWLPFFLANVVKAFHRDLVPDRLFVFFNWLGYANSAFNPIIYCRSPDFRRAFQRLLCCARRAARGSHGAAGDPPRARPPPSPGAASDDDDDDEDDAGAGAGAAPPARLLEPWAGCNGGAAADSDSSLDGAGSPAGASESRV
Procedure: (§1) The blocking action of the compounds according to the invention on the β1-receptors of the heart and on the β2-receptors of the cardiovascular system was investigated as follows: the blood pressure in the left-hand ventricle was measured on mongrel dogs of both sexes under an anaesthesia by Chloralose-urethane-morphine and the pressure signal was continuously differentiated by means of an analogue computer (BRUSH Instruments, Cleveland/Ohio) and, inter alia, the rate of pressure increase (Dp/dt) was recorded. In addition, the perfusion of a femoral artery was measured by means of an electromagnetic flow-meter (Model […] of Messrs. Statham) and the perfusion was recorded in ml/minute. […] DUNLOP and […]: Selective blockade of adrenoceptive beta-receptors in the heart. Brit. J. Pharmac. Chemother. (1968) 32, 201-218). […] The higher this quotient is, the better the cardioselective action.

[2] = target: T2, β2-receptors of the cardiovascular system (Canis lupus familiaris, UniProt P54833); assay: Inhibition of isoproterenol-induced alteration of peripheral (femoral artery) perfusion in anaesthetised dogs (β2-receptor inhibition); type: in vivo, mongrel dogs; settings: for ED50: dog, iv, read-out: β2-receptor inhibition ED 50; for Relative β2-receptor inhibition (reference substance = 100): relative ED 50, dogs
T2 construct: from tissue; host or cells: femoral artery vascular bed of anaesthetised mongrel dogs, in vivo
T2 sequence (P54833 whole entry, the tested form may be a part): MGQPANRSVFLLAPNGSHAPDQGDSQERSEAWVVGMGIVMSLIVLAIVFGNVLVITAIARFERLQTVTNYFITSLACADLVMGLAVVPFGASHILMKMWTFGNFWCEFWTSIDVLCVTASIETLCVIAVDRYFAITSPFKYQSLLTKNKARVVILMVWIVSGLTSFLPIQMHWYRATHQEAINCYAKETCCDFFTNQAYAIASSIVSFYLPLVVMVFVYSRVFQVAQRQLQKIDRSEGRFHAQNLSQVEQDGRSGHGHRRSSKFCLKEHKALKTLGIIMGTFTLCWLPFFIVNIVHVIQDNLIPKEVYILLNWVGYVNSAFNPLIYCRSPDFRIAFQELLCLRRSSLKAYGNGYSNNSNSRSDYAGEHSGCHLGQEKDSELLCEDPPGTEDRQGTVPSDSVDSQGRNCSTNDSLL
Procedure: as §1

[3] = system: cardiac β1-receptors; assay: Inhibition of isoproterenol-induced increase in heart rate in anaesthetized guinea pigs (β1-receptor inhibition); type: in vivo; settings: for β1-receptor inhibition, parameter: heart rate response to isoproterenol: ED-50: i.v., guinea pigs anaesthetized with urethane, isoproterenol 0.5 gamma/animal
Procedure: The isoproterenol-induced increase in heart rate in anaesthetized animals represents mainly the response of the cardiac β1-receptors. The dose of the antagonists (mg/kg i.v.) which inhibits this response of isoproterenol (0.5 gamma/animal) in guinea pigs, anaesthetized with urethane, by 50% : ED-50 was determined.

[4] = target: T3, tracheal β2-receptors (Cavia porcellus, UniProt Q8K4Z4); assay: Inhibition of isoproterenol-induced relaxation of contracted isolated tracheal chain (β2-receptor inhibition); parameters: species or system guinea pigs
T3 construct: isolated tracheal chain of guinea pigs; from tissue; host or cells: isolated guinea pig tracheal chain
T3 sequence (Q8K4Z4 whole entry): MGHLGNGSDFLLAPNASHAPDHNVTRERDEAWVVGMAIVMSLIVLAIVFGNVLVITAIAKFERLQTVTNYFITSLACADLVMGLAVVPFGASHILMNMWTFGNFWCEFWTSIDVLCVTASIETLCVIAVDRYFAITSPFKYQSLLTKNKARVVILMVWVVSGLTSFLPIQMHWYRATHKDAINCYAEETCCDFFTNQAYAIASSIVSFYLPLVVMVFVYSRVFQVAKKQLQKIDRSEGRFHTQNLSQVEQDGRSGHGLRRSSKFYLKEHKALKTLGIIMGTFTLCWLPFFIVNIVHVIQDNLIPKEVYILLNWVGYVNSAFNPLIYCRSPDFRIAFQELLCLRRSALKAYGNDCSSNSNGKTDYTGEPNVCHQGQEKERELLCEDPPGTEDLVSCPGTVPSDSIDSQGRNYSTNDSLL
Procedure: The isoproterenol-induced relaxation of contracted isolated tracheal chain of guinea pigs represents the response of the tracheal β2-receptors. The bath concentrations of the antagonists which reduce the isoproterenol effects by 50% were determined: ED-50 : g/ml bath.

Row | SMILES | ED50 [1] | Quotient: ED 50 of β2-receptor inhibition / ED 50 of β1-receptor inhibition [1] | Relative quotient, on basis of reference substance = 1 [1] | Relative β1-receptor inhibition (reference substance = 100) [1] | ED50 [2] | Relative β2-receptor inhibition (reference substance = 100) [2] | Relative β1-receptor inhibition (reference substance = 100) ([3]; heart rate, guinea pigs) | β1-receptor inhibition, parameter: heart rate response to isoproterenol: ED-50 [3] | IC50 ([4]; bath concentration reducing isoproterenol effects by 50%, guinea pig trachea, read-out: β2-receptor inhibition, parameter: isolated tracheal chain: ED-50 (converted)) | Relative β2-receptor inhibition (reference substance = 100) ([4]; isolated tracheal chain, guinea pigs)
1 | CCNC(=O)Nc1ccc(OCC(O)CNC(C)CC(O)c2cnc(C)nc2C)cc1 (centres unmarked) [1-(p-Ethylureido-phenoxy)-3-(1-[2,4-dimethyl-pyrimidyl-5-]-1-hydroxy-butyl(3)-amino)-propan-2-ol] | 0.093 mg/kg | 137 | 1.2 | 39.1 | 12.8 mg/kg | 48.3 | – | – | – | –
2 | Cc1ccc(C(O)CC(C)NCC(O)COc2ccc(OCCO)cc2)cn1 (centres unmarked) [1-(-p-[2-Hydroxy-ethoxy]-henoxy)-3-(1-[2-methyl-pyridyl-5]-1-hydroxy-butyl(3)-amino)-propan-2-ol] | 0.073 mg/kg | 112 | 1 | 30.7 | 8.14 mg/kg | 30.7 | – | – | – | –
3 | CCOCc1ccc(OCC(O)CNC(C)CC(O)c2cccnc2)cc1 (centres unmarked) [1-(p-Ethoxymethylene-phenoxy)-3-(1-[pyridyl-3]-1-hydroxy-butyl(3)-amino)-propan-2-ol] | 0.01 mg/kg | – | – | 4.2 | – | – | – | – | – | –
4 | CCCOCCOc1ccc(OCC(O)CNC(C)CC(O)c2ccc(C)nc2)cc1 (centres unmarked) [1-(p-[2-n-propoxy-ethoxy]-phenoxy)-3-(1-[2-methyl-pyridyl-5]-1-hydroxy-butyl(3)-amino)-propan-2-ol] | 0.035 mg/kg | 146 | 1.3 | 14.7 | 5.1 mg/kg | 19.2 | 3.39 | 0.177 mg/kg | 6.94 µM | 7.7
5 | C=CCNC(=O)Nc1ccc(OCC(O)CNC(C)CC(O)c2cnc(C)nc2C)cc1 (centres unmarked) [1-(p-Allylureido-phenoxy)-3-(1-[2,4-dimethyl-pyrimidyl-5]-1-hydroxy-butyl(3)-amino)-propan-2-ol] | 0.019 mg/kg | – | – | 7.9 | – | – | – | – | – | –
6 | CC(=O)Nc1ccc(OCC(O)CNC(C)C)cc1 (centres unmarked) [4-(2-Hydroxy-3-isopropylamino-propoxy)-acetanilide, reference compound] | – | – | – | – | – | – | – | 5.3 mg/kg | – | –
7 | Cc1ncc(C(O)CC(C)NCC(O)COc2ccc(NC(=O)NC3CCCCC3)cc2)c(C)n1 (centres unmarked) [1-(p-Cyclohexylureido-phenoxy)-3-(1-[2,4-dimethyl-pyrimidyl-5] -1-hydroxy-butyl(3)-amino)-propan-2-ol] | 0.011 mg/kg | 128 | 1.1 | 4.6 | 1.38 mg/kg | 5.2 | – | – | – | –
8 | CCOCc1ccc(OCC(O)CNC(C)CC(O)c2cnc(C)nc2C)cc1 (centres unmarked) [1-(p-Ethoxymethylene-phenoxy)-3-(1-[2,4-dimethyl-pyrimidyl-5]-1-hydroxy-butyl(3)-amino)-propan-2-ol] | 0.019 mg/kg | 144 | 1.4 | 7.9 | 2.88 mg/kg | 10.7 | – | – | – | –
9 | COCCCCOc1ccc(OCC(O)CNC(C)CC(O)c2cnc(C)nc2C)cc1 (centres unmarked) [1-(p-Methoxybutoxy-phenoxy)-3-(1-[2,4-dimethyl-pyrimidyl-5]-hydroxy-butyl(3)-amino)-propan-2-ol] | 0.089 mg/kg | 176 | 1.6 | 37.4 | 16 mg/kg | 58.8 | – | – | – | –
10 | CCNC(=O)Nc1ccc(OCC(O)CNC(C)CC(O)c2cccnc2)cc1 (centres unmarked) [1-(p-Ethylureido-phenoxy)-3-(1-[pyridyl-3]-1-hydroxy-butyl(3)-amino)-propan-2-ol] | 0.013 mg/kg | – | – | 5.5 | – | – | – | – | – | –
11 | Cc1ncc(C(O)CC(C)NCC(O)COc2ccc(NC(=O)NC(C)C)cc2)c(C)n1 (centres unmarked) [1-(p-Isopropylureido- -phenoxy)-3-(1-[2,4-dimethyl-pyrimidyl-5]-1-hydroxy-butyl(3)-amino)-propan-2-ol] | 0.022 mg/kg | 124 | 1.1 | 9.2 | 2.71 mg/kg | 10.2 | – | – | – | –
12 | Cc1ccc(C(O)CC(C)NCC(O)COc2ccc(NC(=O)NC3CCCCC3)cc2)cn1 (centres unmarked) [1-(p-Cyclohexylureido-phenoxy)-3-(1-[2-methyl-pyridyl-5]-1-hydroxy-butyl(3)-amino)-propan-2-ol] | 0.006 mg/kg | 245 | 2.4 | 2.5 | 1.57 mg/kg | 5.9 | – | – | – | –
13 | CC(CC(O)c1cccnc1)NCC(O)COc1ccc(NC(=O)NC2CCCCC2)cc1 (centres unmarked) [1-(p-Cyclohexylureidophenoxy)-3-(1-hydroxy-1-pyridyl-(3)-butyl3-amino)-propan-2-ol] | 0.003 mg/kg | 409 | 2.9 | 1.3 | 1.02 mg/kg | 3.8 | – | – | – | –
14 | CCOCCOc1ccc(OCC(O)CNC(C)CC(O)c2cccnc2)cc1 (centres unmarked) [1-(p-Ethoxyethoxy-phenoxy)-3-(1-[pyridyl-3]-1-hydroxy-butyl(3)-amino)-propan-2-ol] | 0.009 mg/kg | 296 | 2.7 | 3.8 | 2.76 mg/kg | 10.1 | – | – | – | –
